Molecules are shown by their SMILES. Where “and” joins values, the source holds several entries; their conditions need not be identical. Equal values may be shown once. Inconclusive results and toxic doses are left out.

The subject of the assay is P388 leukemia ip, CD2F1 mice, survival T/C. The assay is described as follows: NCI In Vivo Anticancer Drug Screen. Data for tumor model P388 Leukemia (intraperitoneal) in CD2F1 (CDF1) mice. The settings on record: endpoint: median survival time, higher = longer survival. In a few lines:
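Mice carrying the transplanted tumor received test compound or vehicle. Survival was recorded in each group, and the value is the treated-group measurement divided by that of the vehicle-treated control group.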

The mark [1] stands for this setting: dose: 15.0 mg/kg/injection, schedule: Q01DX005 (ip), vehicle: saline with Tween-80.
[2] abbreviates: dose: 240.0 mg/kg/injection, schedule: Q01DX005 (ip), vehicle: saline with Tween-80.
Setting [3] is: dose: 50.0 mg/kg/injection, schedule: Q01DX009 (ip), vehicle: suspension in saline.
Where [4] appears, read: dose: 100.0 mg/kg/injection, schedule: Q01DX009 (ip), vehicle: suspension in saline.
The mark [5] stands for this setting: dose: 200.0 mg/kg/injection, schedule: Q01DX009 (ip), vehicle: suspension in saline.

With `c1cc[c]([Pb]([S]c2nc3ccccc3[nH]2)([c]2ccccc2)[c]2ccccc2)cc1`, the T/C is, setting by setting: (dose: 0.37 mg/kg/injection, schedule: Q01DX009 (ip), vehicle: Klucel (hydroxypropylcellulose) (HPC)) 102 % of control; (dose: 0.75 mg/kg/injection, schedule: Q01DX009 (ip), vehicle: Klucel (hydroxypropylcellulose) (HPC)) 121 % of control; (dose: 1.5 mg/kg/injection, schedule: Q01DX009 (ip), vehicle: Klucel (hydroxypropylcellulose) (HPC)) 102 % of control; (dose: 3.0 mg/kg/injection, schedule: Q01DX009 (ip), vehicle: Klucel (hydroxypropylcellulose) (HPC)) 100 % of control.

Regarding `CC1(C)CC2C=C(C=O)C3(C=O)CC3(C)C2C1` (configuration not stated), the T/C reads like this: (dose: 0.78 mg/kg/injection, schedule: Q01DX009 (ip), vehicle: Klucel (hydroxypropylcellulose) (HPC)) 96 % of control; (dose: 1.56 mg/kg/injection, schedule: Q01DX009 (ip), vehicle: Klucel (hydroxypropylcellulose) (HPC)) 112 % of control; (dose: 3.12 mg/kg/injection, schedule: Q01DX009 (ip), vehicle: Klucel (hydroxypropylcellulose) (HPC)) 111 % of control; (dose: 6.25 mg/kg/injection, schedule: Q01DX009 (ip), vehicle: Klucel (hydroxypropylcellulose) (HPC)) 111 % of control.

For `CC[N+](C)(CC)CCOc1ccc(OCC[N+](C)(CC)CC)c2c1C(=O)c1ccccc1C2=O`, the T/C by setting is: (dose: 0.78 mg/kg/injection, schedule: Q01DX005 (ip), vehicle: saline) 98 % of control; (dose: 1.56 mg/kg/injection, schedule: Q01DX005 (ip), vehicle: saline) 109 % of control; (dose: 3.12 mg/kg/injection, schedule: Q01DX005 (ip), vehicle: saline) 100 % of control.

Turning to `Cc1cc(N(CCCl)CCCl)ccc1C=Nc1ccc(F)cc1`, the T/C reads like this: (dose: 100.0 mg/kg/injection, schedule: Q04DX003 (ip), vehicle: saline with Tween-80) 104 % of control; (dose: 200.0 mg/kg/injection, schedule: Q01DX009 (ip), vehicle: saline with Tween-80) 155 % of control; (dose: 264.0 mg/kg/injection, schedule: Q04DX003 (ip), vehicle: saline with Tween-80) 109 % of control; (dose: 400.0 mg/kg/injection, schedule: Q01DX009 (ip), vehicle: saline with Tween-80) 165 % of control; (dose: 400.0 mg/kg/injection, schedule: Q04DX003 (ip), vehicle: saline with Tween-80) 150 % of control; (dose: 600.0 mg/kg/injection, schedule: Q04DX003 (ip), vehicle: saline with Tween-80) 168 % of control.

As for `Cn1c(O)c2c(c1O)C(=Nc1ccccc1)c1ccccc1C2=O`, the T/C is 86 % of control (dose: 50.0 mg/kg/injection, schedule: Q01DX005 (ip), vehicle: Klucel (hydroxypropylcellulose) (HPC)); 89 % of control (dose: 100.0 mg/kg/injection, schedule: Q01DX005 (ip), vehicle: Klucel (hydroxypropylcellulose) (HPC)); 94 % of control (dose: 200.0 mg/kg/injection, schedule: Q01DX005 (ip), vehicle: Klucel (hydroxypropylcellulose) (HPC)).

For `O=S(=O)(O)Nc1ccccc1`, the T/C (dose: 12.5 mg/kg/injection, schedule: Q01DX009 (ip), vehicle: water) was 100 % of control; the T/C (dose: 25.0 mg/kg/injection, schedule: Q01DX009 (ip), vehicle: water) is 104 % of control; the T/C (dose: 50.0 mg/kg/injection, schedule: Q01DX009 (ip), vehicle: water) is 99 % of control; the T/C (dose: 100.0 mg/kg/injection, schedule: Q01DX009 (ip), vehicle: water) was 100 % of control; the T/C (dose: 200.0 mg/kg/injection, schedule: Q01DX009 (ip), vehicle: water) was 101 % of control.

Consider `CNC(=O)OCC1=C(COC(=O)NC)C(=O)c2ccccc2C1=O`, for which the T/C is 96 % of control (dose: 6.25 mg/kg/injection, schedule: Q01DX005 (ip), vehicle: Klucel (hydroxypropylcellulose) (HPC)); 105 % of control (dose: 12.5 mg/kg/injection, schedule: Q01DX005 (ip), vehicle: Klucel (hydroxypropylcellulose) (HPC)); 112 % of control (dose: 25.0 mg/kg/injection, schedule: Q01DX005 (ip), vehicle: Klucel (hydroxypropylcellulose) (HPC)).

On to `CCOC(=O)N1CCc2cc3c(cc2C1Cc1ccc(OC)c(OC)c1CCl)OCO3` (configuration not stated), for which the T/C is, setting by setting: (dose: 50.0 mg/kg/injection, schedule: Q01DX005 (ip), vehicle: saline with Tween-80) 100 % of control; (dose: 100.0 mg/kg/injection, schedule: Q01DX005 (ip), vehicle: saline with Tween-80) 92 % of control.

Regarding `COc1ccc(C[n+]2ccc3c([N+](=O)[O-])cccc3c2)cc1`, the T/C (dose: 7.5 mg/kg/injection, schedule: Q01DX005 (ip), vehicle: saline + Tween-80 + alcohol) is 111 % of control; the T/C (dose: 15.0 mg/kg/injection, schedule: Q01DX005 (ip), vehicle: saline + Tween-80 + alcohol) is 116 % of control; the T/C (dose: 30.0 mg/kg/injection, schedule: Q01DX005 (ip), vehicle: saline + Tween-80 + alcohol) is 116 % of control.

Regarding `c1ccc(C2c3ccccc3C(c3ccccc3)(c3ccccc3)c3ccccc32)cc1`, the T/C runs as follows: (dose: 12.5 mg/kg/injection, schedule: Q01DX009 (ip), vehicle: Klucel (hydroxypropylcellulose) (HPC)) 91 % of control; (dose: 25.0 mg/kg/injection, schedule: Q01DX009 (ip), vehicle: Klucel (hydroxypropylcellulose) (HPC)) 95 % of control; (dose: 50.0 mg/kg/injection, schedule: Q01DX009 (ip), vehicle: Klucel (hydroxypropylcellulose) (HPC)) 94 % of control; (dose: 100.0 mg/kg/injection, schedule: Q01DX009 (ip), vehicle: Klucel (hydroxypropylcellulose) (HPC)) 91 % of control.

Take `O=C(CNC(=O)Nc1ccc(Cl)c(Cl)c1)N/N=C/c1c(O)ccc2ccccc12`: the T/C is 96 % of control (dose: 3.75 mg/kg/injection, schedule: Q01DX005 (ip), vehicle: saline with Tween-80); 102 % of control (dose: 7.5 mg/kg/injection, schedule: Q01DX005 (ip), vehicle: saline with Tween-80); 88 % of control and 94 % of control under setting [1]; 100 % of control under setting [2].

Regarding `CC1CCC(C)(C(O)c2ccc(C(O)C3(C)CCC(C)C3(C)C)cc2)C1(C)C` (configuration not stated), the T/C is 86 % of control (dose: 50.0 mg/kg/injection, schedule: Q01DX009 (ip), vehicle: saline); 92 % of control under setting [3]; 91 % of control under setting [4]; 89 % of control (dose: 200.0 mg/kg/injection, schedule: Q01DX009 (ip), vehicle: saline).

With `O=C1OC(Cl)C=C1c1ccccc1` (configuration not stated), the T/C under setting [3] is 95 % of control, the T/C under setting [4] is 101 % of control and the T/C under setting [5] is 101 % of control.

With `O=C([O][Hg][C](F)(F)F)C(F)(F)F`, the T/C (dose: 1.56 mg/kg/injection, schedule: Q04DX003 (ip), vehicle: saline) was 104 % of control and the T/C (dose: 3.13 mg/kg/injection, schedule: Q04DX003 (ip), vehicle: saline) was 101 % of control.

For the molecule `c1cc2nc(c1)CSCc1cc3c(cc1CSCc1cccc(n1)CSC3)CSC2`, the T/C under setting [3] was 102 % of control, the T/C under setting [4] was 94 % of control and the T/C under setting [5] is 86 % of control.

With `O=C(Nc1ccc(Cl)c(Cl)c1)Nc1ccc(Oc2ccc(Cl)cc2Cl)cc1S(=O)(=O)O`, the T/C (dose: 100.0 mg/kg/injection, schedule: Q04DX003 (ip), vehicle: Klucel (hydroxypropylcellulose) (HPC)) is 91 % of control; the T/C (dose: 200.0 mg/kg/injection, schedule: Q04DX003 (ip), vehicle: Klucel (hydroxypropylcellulose) (HPC)) was 100 % of control; the T/C (dose: 400.0 mg/kg/injection, schedule: Q04DX003 (ip), vehicle: Klucel (hydroxypropylcellulose) (HPC)) is 95 % of control.

`CC(C)=CCC(OC(=O)CC(C)C)C1=CC(=O)c2c(O)ccc(O)c2C1=O` (configuration not stated): the T/C runs as follows: (dose: 6.25 mg/kg/injection, schedule: Q01DX005 (ip), vehicle: saline with Tween-80) 94 % of control; (dose: 12.5 mg/kg/injection, schedule: Q01DX005 (ip), vehicle: saline with Tween-80) 103 % of control; (dose: 25.0 mg/kg/injection, schedule: Q01DX005 (ip), vehicle: saline with Tween-80) 99 % of control.

Regarding `c1ccc2c(SCCCCCSc3c4ccccc4nc4ccccc34)c3ccccc3nc2c1`, the T/C is, setting by setting: (dose: 60.0 mg/kg/injection, schedule: Q01DX005 (ip), vehicle: Klucel (hydroxypropylcellulose) (HPC)) 97 % of control; (dose: 120.0 mg/kg/injection, schedule: Q01DX005 (ip), vehicle: Klucel (hydroxypropylcellulose) (HPC)) 89 % of control; (dose: 240.0 mg/kg/injection, schedule: Q01DX005 (ip), vehicle: Klucel (hydroxypropylcellulose) (HPC)) 88 % of control.

Turning to `O=C(Nc1ccc(Cl)cc1)Nc1nnc(COc2ccccc2)o1`, the T/C under setting [1] was 90 % of control; the T/C (dose: 30.0 mg/kg/injection, schedule: Q01DX005 (ip), vehicle: saline with Tween-80) was 88 % of control; the T/C (dose: 60.0 mg/kg/injection, schedule: Q01DX005 (ip), vehicle: saline with Tween-80) was 89 % of control and 90 % of control; the T/C (dose: 120.0 mg/kg/injection, schedule: Q01DX005 (ip), vehicle: saline with Tween-80) was 90 % of control; the T/C under setting [2] is 87 % of control.

(Values after PubChem BioAssay AID330 (DTP/NCI, 2004).)
